PubChem BioAssay (NCI)
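Grown in 96-well plates, cells were treated for 48 hours with each compound at five concentrations. Insufficient inhibition: endpoint recorded as highest concentration tested. GI50 = concentration required for 50% inhibition of growth. TGI denotes the concentration required for complete inhibition of growth.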

Experiments:
Assay in all cases: NCI anticancer screen, dose series, 48 h
786-0 renal = system: 786-0 renal
KM12 colon = system: KM12 colon
IGROV1 ovarian = system: IGROV1 ovarian
NCI-H460 lung = system: NCI-H460 lung
NCI-H23 lung = system: NCI-H23 lung
A498 renal = system: A498 renal
COLO 205 colon = system: COLO 205 colon
MALME-3M melanoma = system: MALME-3M melanoma
U251 CNS = system: U251 CNS
NCI-H226 lung = system: NCI-H226 lung
M14 melanoma = system: M14 melanoma
SF-295 CNS = system: SF-295 CNS
UACC-62 melanoma = system: UACC-62 melanoma
HS 578T breast = system: HS 578T breast
DU-145 prostate = system: DU-145 prostate
SF-539 CNS = system: SF-539 CNS
MDA-MB-231 breast = system: MDA-MB-231 breast
SK-OV-3 ovarian = system: SK-OV-3 ovarian
RXF 393 renal = system: RXF 393 renal
SF-268 CNS = system: SF-268 CNS
HCC-2998 colon = system: HCC-2998 colon
SK-MEL-28 melanoma = system: SK-MEL-28 melanoma
OVCAR-5 ovarian = system: OVCAR-5 ovarian
SK-MEL-2 melanoma = system: SK-MEL-2 melanoma
UO-31 renal = system: UO-31 renal
HT29 colon = system: HT29 colon
SN12C renal = system: SN12C renal
EKVX NSCLC = system: EKVX NSCLC
A549 NSCLC = system: A549 NSCLC
UACC-257 melanoma = system: UACC-257 melanoma
TK-10 renal = system: TK-10 renal
SK-MEL-5 melanoma = system: SK-MEL-5 melanoma
HCT-15 colon = system: HCT-15 colon
CCRF-CEM leukemia = system: CCRF-CEM leukemia
BT-549 breast = system: BT-549 breast
OVCAR-3 ovarian = system: OVCAR-3 ovarian
MOLT-4 leukemia = system: MOLT-4 leukemia
HOP-92 NSCLC = system: HOP-92 NSCLC
HCT-116 colon = system: HCT-116 colon
MDA-MB-435 = system: MDA-MB-435
NCI/ADR-RES ovarian = system: NCI/ADR-RES ovarian
RPMI-8226 leukemia = system: RPMI-8226 leukemia
HOP-62 NSCLC = system: HOP-62 NSCLC
CAKI-1 renal = system: CAKI-1 renal
SW-620 colon = system: SW-620 colon
K-562 leukemia = system: K-562 leukemia
LOX IMVI melanoma = system: LOX IMVI melanoma
ACHN renal = system: ACHN renal
HL-60(TB) leukemia = system: HL-60(TB) leukemia
SNB-75 CNS = system: SNB-75 CNS
SNB-19 CNS = system: SNB-19 CNS
OVCAR-4 ovarian = system: OVCAR-4 ovarian
OVCAR-8 ovarian = system: OVCAR-8 ovarian
MCF7 breast = system: MCF7 breast
SR leukemia = system: SR leukemia
PC-3 prostate = system: PC-3 prostate
NCI-H522 lung = system: NCI-H522 lung
T-47D breast = system: T-47D breast

SMILES: Cc1cc(Br)c2nsnc2c1[N+](=O)[O-]
- GI50 (786-0 renal): 3.96 µM
- TGI (786-0 renal): 13.7 µM
- GI50 (KM12 colon): 0.245 µM
- TGI (KM12 colon): 0.665 µM
- GI50 (IGROV1 ovarian): 1.65 µM
- TGI (IGROV1 ovarian): 3.62 µM
- GI50 (NCI-H460 lung): 3.15 µM
- TGI (NCI-H460 lung): 10.7 µM
- GI50 (NCI-H23 lung): 1.9 µM
- TGI (NCI-H23 lung): 3.9 µM
- GI50 (A498 renal): 5.06 µM
- TGI (A498 renal): 15 µM
- GI50 (COLO 205 colon): 3.01 µM
- TGI (COLO 205 colon): 7.97 µM
- GI50 (MALME-3M melanoma): 2.08 µM
- TGI (MALME-3M melanoma): 6.55 µM
- GI50 (U251 CNS): 2.73 µM
- TGI (U251 CNS): 8.12 µM
- GI50 (NCI-H226 lung): 7.13 µM
- TGI (NCI-H226 lung): 19.2 µM
- GI50 (M14 melanoma): 1.77 µM
- TGI (M14 melanoma): 3.32 µM
- GI50 (SF-295 CNS): 2.96 µM
- TGI (SF-295 CNS): 12.1 µM
- GI50 (UACC-62 melanoma): 7.13 µM
- TGI (UACC-62 melanoma): 20 µM
- GI50 (HS 578T breast): 2.97 µM
- TGI (HS 578T breast): 18.4 µM
- GI50 (DU-145 prostate): 1.66 µM
- TGI (DU-145 prostate): 3.09 µM
- GI50 (SF-539 CNS): 3.1 µM
- TGI (SF-539 CNS): 11.2 µM
- GI50 (MDA-MB-231 breast): 5.01 µM
- TGI (MDA-MB-231 breast): 15.6 µM
- GI50 (SK-OV-3 ovarian): 13.5 µM
- TGI (SK-OV-3 ovarian): 26.4 µM
- GI50 (RXF 393 renal): 6.66 µM
- TGI (RXF 393 renal): 18.5 µM
- GI50 (SF-268 CNS): 2 µM
- TGI (SF-268 CNS): 5.16 µM
- GI50 (HCC-2998 colon): 2.07 µM
- TGI (HCC-2998 colon): 4.44 µM
- GI50 (SK-MEL-28 melanoma): 3.34 µM
- TGI (SK-MEL-28 melanoma): 7.67 µM
- GI50 (OVCAR-5 ovarian): 4.55 µM
- TGI (OVCAR-5 ovarian): 15.9 µM
- GI50 (SK-MEL-2 melanoma): 3.45 µM
- TGI (SK-MEL-2 melanoma): 8.89 µM
- GI50 (UO-31 renal): 2.05 µM
- TGI (UO-31 renal): 8.23 µM
- GI50 (HT29 colon): 2.04 µM
- TGI (HT29 colon): 4.31 µM
- GI50 (SN12C renal): 4.93 µM
- TGI (SN12C renal): 17.2 µM
- GI50 (EKVX NSCLC): 1.76 µM
- TGI (EKVX NSCLC): 5.73 µM
- GI50 (A549 NSCLC): 4.13 µM
- TGI (A549 NSCLC): 17.3 µM
- GI50 (UACC-257 melanoma): 3.87 µM
- TGI (UACC-257 melanoma): 10.9 µM
- GI50 (TK-10 renal): 3.72 µM
- TGI (TK-10 renal): 12.4 µM
- GI50 (SK-MEL-5 melanoma): 3.88 µM
- TGI (SK-MEL-5 melanoma): 13.8 µM
- GI50 (HCT-15 colon): 4.28 µM
- TGI (HCT-15 colon): 18.4 µM
- GI50 (CCRF-CEM leukemia): 2.16 µM
- TGI (CCRF-CEM leukemia): 5.44 µM
- GI50 (BT-549 breast): 3.95 µM
- TGI (BT-549 breast): 12 µM
- GI50 (OVCAR-3 ovarian): 1.69 µM
- TGI (OVCAR-3 ovarian): 3.08 µM
- GI50 (MOLT-4 leukemia): 1.64 µM
- TGI (MOLT-4 leukemia): 4.93 µM
- GI50 (HOP-92 NSCLC): 7.24 µM
- TGI (HOP-92 NSCLC): 22.1 µM
- GI50 (HCT-116 colon): 1.77 µM
- TGI (HCT-116 colon): 3.63 µM
- GI50 (MDA-MB-435): 2.86 µM
- TGI (MDA-MB-435): 11.1 µM
- GI50 (NCI/ADR-RES ovarian): 4.54 µM
- TGI (NCI/ADR-RES ovarian): 20.7 µM
- GI50 (RPMI-8226 leukemia): 0.666 µM
- TGI (RPMI-8226 leukemia): 9.55 µM
- GI50 (HOP-62 NSCLC): 4.59 µM
- TGI (HOP-62 NSCLC): 16.3 µM
- GI50 (CAKI-1 renal): 1.6 µM
- TGI (CAKI-1 renal): 3.26 µM
- GI50 (SW-620 colon): 2.15 µM
- TGI (SW-620 colon): 15.1 µM
- GI50 (K-562 leukemia): 0.968 µM
- GI50 (LOX IMVI melanoma): 0.94 µM
- TGI (LOX IMVI melanoma): 3.07 µM
- GI50 (ACHN renal): 4.39 µM
- TGI (ACHN renal): 15.5 µM
- GI50 (HL-60(TB) leukemia): 1.86 µM
- TGI (HL-60(TB) leukemia): 4.56 µM
- GI50 (SNB-75 CNS): 3.46 µM
- TGI (SNB-75 CNS): 15.4 µM
- GI50 (SNB-19 CNS): 7.63 µM
- TGI (SNB-19 CNS): 20.6 µM
- GI50 (OVCAR-4 ovarian): 4.73 µM
- TGI (OVCAR-4 ovarian): 17.3 µM
- GI50 (OVCAR-8 ovarian): 3.18 µM
- TGI (OVCAR-8 ovarian): 12.1 µM
- GI50 (MCF7 breast): 0.391 µM
- TGI (MCF7 breast): 3.02 µM
- GI50 (SR leukemia): 0.706 µM
- TGI (SR leukemia): 3.23 µM
- GI50 (PC-3 prostate): 4.49 µM
- TGI (PC-3 prostate): 15.8 µM
- GI50 (NCI-H522 lung): 0.176 µM
- TGI (NCI-H522 lung): 0.381 µM
- GI50 (T-47D breast): 0.921 µM
- TGI (T-47D breast): 5.96 µM
